Assay results from PubChem BioAssay AID1845211 (Molecular Pharmacology Branch, DTP, NCI, 2023).

System: NCI-H322M multicellular tumor spheroids, viability (% test/control)
Assay: Anticancer human tumor NCI-H322M cell line growth inhibition;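 for viability, T/C: spheroids exposed to compound for seven days before readout; 100% = DMSO vehicle control wells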
Conditions: for IC50: curve of first compound; for viability, T/C: stronger effect = lower value; active = viability on the fitted dose curve at most 10% of control; inactive = the rest
Outline: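 Single agents and combinations were tested on spheroids built from tumor cells plus HUVEC and hMSC, at half-log dilutions starting at or near clinical Cmax, else 10 microM; final DMSO 0.25% (v/v).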

[1] = second compound 30 pM, first compound 0.00949 µM
[2] = second compound 30 pM, first compound 0.03 µM
[3] = second compound 30 pM, first compound 0.0949 µM
[4] = second compound 30 pM, first compound 0.3 µM
[5] = second compound 30 pM, first compound 0.949 µM
[6] = second compound 30 pM, first compound 3 µM
[7] = second compound 94.9 pM, first compound 0.00949 µM
[8] = second compound 94.9 pM, first compound 0.03 µM
[9] = second compound 94.9 pM, first compound 0.0949 µM
[10] = second compound 94.9 pM, first compound 0.3 µM
[11] = second compound 94.9 pM, first compound 0.949 µM
[12] = second compound 94.9 pM, first compound 3 µM
[13] = second compound 0.0003 µM, first compound 0.00949 µM
[14] = second compound 0.0003 µM, first compound 0.03 µM
[15] = second compound 0.0003 µM, first compound 0.0949 µM
[16] = second compound 0.0003 µM, first compound 0.3 µM
[17] = second compound 0.0003 µM, first compound 0.949 µM
[18] = second compound 0.0003 µM, first compound 3 µM
[19] = second compound 0.000949 µM, first compound 0.00949 µM
[20] = second compound 0.000949 µM, first compound 0.03 µM
[21] = second compound 0.000949 µM, first compound 0.0949 µM
[22] = second compound 0.000949 µM, first compound 0.3 µM
[23] = second compound 0.000949 µM, first compound 0.949 µM
[24] = second compound 0.000949 µM, first compound 3 µM
[25] = second compound 0.003 µM, first compound 0.00949 µM
[26] = second compound 0.003 µM, first compound 0.03 µM
[27] = second compound 0.003 µM, first compound 0.0949 µM
[28] = second compound 0.003 µM, first compound 0.3 µM
[29] = second compound 0.003 µM, first compound 0.949 µM
[30] = second compound 0.003 µM, first compound 3 µM

Cn1ncnc1[C@H]1c2n[nH]c(=O)c3cc(F)cc(c23)N[C@@H]1c1ccc(F)cc1 + COc1cc2c(cc1O)CCNC21CSC2c3c(OC(C)=O)c(C)c4c(c3C(COC1=O)N1C(O)C3Cc5cc(C)c(OC)c(O)c5C(C21)N3C)OCO4
< 0.00949 µM: IC50 (second compound 0.003 µM)
> 3 µM: IC50 (second compound 30 pM) | IC50 (second compound 94.9 pM) | IC50 (second compound 0.0003 µM)
1.52 µM: IC50 (second compound 0.000949 µM)
inactive: viability, T/C [1] 78.7% | viability, T/C [2] 89.2% | viability, T/C [3] 68.8% | viability, T/C [4] 82% | viability, T/C [5] 75.2% | viability, T/C [6] 65.6% | viability, T/C [7] 71.4% | viability, T/C [8] 78.2% | viability, T/C [9] 78.8% | viability, T/C [10] 70.5% | viability, T/C [11] 68.2% | viability, T/C [12] 59.5% | viability, T/C [13] 88.8% | viability, T/C [14] 85% | viability, T/C [15] 82.9% | viability, T/C [16] 77.8% | viability, T/C [17] 67.3% | viability, T/C [18] 62.9% | viability, T/C [19] 73.6% | viability, T/C [20] 68.6% | viability, T/C [21] 72.5% | viability, T/C [22] 64.4% | viability, T/C [23] 56.9% | viability, T/C [24] 40.3%
active: viability, T/C [25] 6.87% | viability, T/C [26] 9.48% | viability, T/C [27] 6.81% | viability, T/C [28] 3.83% | viability, T/C [29] 10.6% | viability, T/C [30] 1.7%

[2H]c1nc(C)nc([2H])c1-c1cc(NC[C@@H](C)c2cccc3c(C(=O)NC)ccnc23)ncn1 + CC[C@@]1(O)C(=O)OCc2c1cc1n(c2=O)Cc2cc3c(CN(C)C)c(O)ccc3nc2-1
inactive: viability, T/C (second compound 0.003 µM, first compound 0.0316 µM) 91.8% | viability, T/C (second compound 0.003 µM, first compound 0.1 µM) 128% | viability, T/C (second compound 0.003 µM, first compound 0.316 µM) 94.1% | viability, T/C (second compound 0.003 µM, first compound 1 µM) 84.1% | viability, T/C (second compound 0.003 µM, first compound 3.16 µM) 112% | viability, T/C (second compound 0.003 µM, first compound 10 µM) 103% | viability, T/C (second compound 0.00949 µM, first compound 0.0316 µM) 86.6% | viability, T/C (second compound 0.00949 µM, first compound 0.1 µM) 89.9% | viability, T/C (second compound 0.00949 µM, first compound 0.316 µM) 105% | viability, T/C (second compound 0.00949 µM, first compound 1 µM) 89.9% | viability, T/C (second compound 0.00949 µM, first compound 3.16 µM) 89.8% | viability, T/C (second compound 0.00949 µM, first compound 10 µM) 117% | viability, T/C (second compound 0.03 µM, first compound 0.0316 µM) 77.2% | viability, T/C (second compound 0.03 µM, first compound 0.1 µM) 75.5% | viability, T/C (second compound 0.03 µM, first compound 0.316 µM) 76.7% | viability, T/C (second compound 0.03 µM, first compound 1 µM) 82.9% | viability, T/C (second compound 0.03 µM, first compound 3.16 µM) 114% | viability, T/C (second compound 0.03 µM, first compound 10 µM) 103% | viability, T/C (second compound 0.0949 µM, first compound 0.0316 µM) 80.6% | viability, T/C (second compound 0.0949 µM, first compound 0.1 µM) 80.7% | viability, T/C (second compound 0.0949 µM, first compound 0.316 µM) 78.3% | viability, T/C (second compound 0.0949 µM, first compound 1 µM) 74.5% | viability, T/C (second compound 0.0949 µM, first compound 3.16 µM) 72.5% | viability, T/C (second compound 0.0949 µM, first compound 10 µM) 85.5% | viability, T/C (second compound 0.3 µM, first compound 0.0316 µM) 72.2% | viability, T/C (second compound 0.3 µM, first compound 0.1 µM) 59% | viability, T/C (second compound 0.3 µM, first compound 0.316 µM) 60.2% | viability, T/C (second compound 0.3 µM, first compound 1 µM) 60.3% | viability, T/C (second compound 0.3 µM, first compound 3.16 µM) 62.2% | viability, T/C (second compound 0.3 µM, first compound 10 µM) 64.9%
> 10 µM: IC50 (second compound 0.003 µM) | IC50 (second compound 0.00949 µM) | IC50 (second compound 0.03 µM) | IC50 (second compound 0.0949 µM) | IC50 (second compound 0.3 µM)

[2H]c1nc(C)nc([2H])c1-c1cc(NC[C@@H](C)c2cccc3c(C(=O)NC)ccnc23)ncn1 + Cn1nnc2c(C(N)=O)ncn2c1=O
inactive: viability, T/C (second compound 1 µM, first compound 0.0316 µM) 103% | viability, T/C (second compound 1 µM, first compound 0.1 µM) 101% | viability, T/C (second compound 1 µM, first compound 0.316 µM) 93% | viability, T/C (second compound 1 µM, first compound 1 µM) 116% | viability, T/C (second compound 1 µM, first compound 3.16 µM) 88.2% | viability, T/C (second compound 1 µM, first compound 10 µM) 84.4% | viability, T/C (second compound 3.16 µM, first compound 0.0316 µM) 105% | viability, T/C (second compound 3.16 µM, first compound 0.1 µM) 92.1% | viability, T/C (second compound 3.16 µM, first compound 0.316 µM) 94% | viability, T/C (second compound 3.16 µM, first compound 1 µM) 97.5% | viability, T/C (second compound 3.16 µM, first compound 3.16 µM) 100% | viability, T/C (second compound 3.16 µM, first compound 10 µM) 99.3% | viability, T/C (second compound 10 µM, first compound 0.0316 µM) 85.5% | viability, T/C (second compound 10 µM, first compound 0.1 µM) 80.7% | viability, T/C (second compound 10 µM, first compound 0.316 µM) 77.9% | viability, T/C (second compound 10 µM, first compound 1 µM) 99.2% | viability, T/C (second compound 10 µM, first compound 3.16 µM) 107% | viability, T/C (second compound 10 µM, first compound 10 µM) 116% | viability, T/C (second compound 31.6 µM, first compound 0.0316 µM) 81.8% | viability, T/C (second compound 31.6 µM, first compound 0.1 µM) 89.3% | viability, T/C (second compound 31.6 µM, first compound 0.316 µM) 89.9% | viability, T/C (second compound 31.6 µM, first compound 1 µM) 91.9% | viability, T/C (second compound 31.6 µM, first compound 3.16 µM) 102% | viability, T/C (second compound 31.6 µM, first compound 10 µM) 99.5% | viability, T/C (second compound 100 µM, first compound 0.0316 µM) 96.8% | viability, T/C (second compound 100 µM, first compound 0.1 µM) 88.9% | viability, T/C (second compound 100 µM, first compound 0.316 µM) 100% | viability, T/C (second compound 100 µM, first compound 1 µM) 92.5% | viability, T/C (second compound 100 µM, first compound 3.16 µM) 91.8% | viability, T/C (second compound 100 µM, first compound 10 µM) 95.3%
> 10 µM: IC50 (second compound 1 µM) | IC50 (second compound 3.16 µM) | IC50 (second compound 10 µM) | IC50 (second compound 31.6 µM) | IC50 (second compound 100 µM)

Cc1sc2c(c1C)C(c1ccc(Cl)cc1)=NC(CC(=O)Nc1ccc(O)cc1)c1nnc(C)n1-2 (stereo not given) + COc1cc2c(cc1O)CCNC21CSC2c3c(OC(C)=O)c(C)c4c(c3C(COC1=O)N1C(O)C3Cc5cc(C)c(OC)c(O)c5C(C21)N3C)OCO4
active: viability, T/C [24] 11.9% | viability, T/C [25] 9.9% | viability, T/C [26] 6.99% | viability, T/C [27] 6.13% | viability, T/C [28] 2.83% | viability, T/C [29] 1.47% | viability, T/C [30] 1.17%
> 3 µM: IC50 (second compound 30 pM) | IC50 (second compound 94.9 pM)
1.59 µM: IC50 (second compound 0.0003 µM)
0.333 µM: IC50 (second compound 0.000949 µM)
< 0.00949 µM: IC50 (second compound 0.003 µM)
inactive: viability, T/C [1] 113% | viability, T/C [2] 118% | viability, T/C [3] 136% | viability, T/C [4] 112% | viability, T/C [5] 74% | viability, T/C [6] 60.1% | viability, T/C [7] 104% | viability, T/C [8] 112% | viability, T/C [9] 123% | viability, T/C [10] 110% | viability, T/C [11] 72.5% | viability, T/C [12] 53.6% | viability, T/C [13] 117% | viability, T/C [14] 133% | viability, T/C [15] 133% | viability, T/C [16] 119% | viability, T/C [17] 63.9% | viability, T/C [18] 33.1% | viability, T/C [19] 127% | viability, T/C [20] 87.6% | viability, T/C [21] 80.7% | viability, T/C [22] 60.2% | viability, T/C [23] 19.5%
